In general, IC50 refers to the midpoint of a concentration-inhibition curve. In general, solubility refers to the dissolved amount per volume that the medium holds. The low end stands for a poorly soluble substance, the high end for a readily soluble substance. A word on the logP: it is a log measure of how a compound divides between an organic and an aqueous phase. High values mean a more lipophilic compound, low ones a more hydrophilic compound.

Converted amounts (≈) assume the structure as drawn. The source made the active and inactive calls. The calls are words filed in the database; no cut-off is given here.

The values below come from ChEMBL document CHEMBL5038667, “Discovery of an Amino Acid-Modified Near-Infrared Aza-BODIPY Photosensitizer as an Immune Initiator for Potent Photodynamic Therapy in Melanoma” (J Med Chem, 2022).

Data set [1] is described as follows: Phototoxicity against human A-375 cells assessed as reduction in cell viability incubated for 16 hrs followed by irradiated with 54 J/cm^2 of light dose and further incubated for 24 hrs by CCK-8 assay. It counts as toxicity, cell-based. Particulars: A-375, light or radiation study. For orientation: Tetrazolium assays rely on reduction of a dye to a coloured formazan, in cell work by metabolically active cells.

The nature of data set [2]: Aqueous solubility in PBS. It counts as physicochemical. As to conditions: buffer.
The test system of data set [3] is B16-F10. Briefly: Dark toxicity against mouse B16-F10 cells assessed as reduction in cell viability incubated for 16 hrs by CCK-8 assay. Particulars: B16-F10, 16 h. The class given is cell-based.
The nature of data set [4]: Lipophilicity, logP of compound. It counts as physicochemical. As to conditions: octanol/water.
Data set [5] in a line: Phototoxicity against human HeLa cells assessed as reduction in cell viability incubated for 16 hrs followed by irradiated with 54 J/cm^2 of light dose and further incubated for 24 hrs by CCK-8 assay. It counts as toxicity, cell-based. As to conditions: light or radiation study.
The test system of the next data set is A-375. Nature of the data set: Dark toxicity against human A-375 cells assessed as reduction in cell viability incubated for 16 hrs by CCK-8 assay. It counts as functional, cell-based. Particulars: A-375, 16 h.
The subject of the next data set is HeLa. Briefly: Dark toxicity against human HeLa cells assessed as reduction in cell viability incubated for 16 hrs by CCK-8 assay. The class given is functional, cell-based.
Data set [6] in a line: Phototoxicity against mouse B16-F10 cells assessed as reduction in cell viability incubated for 16 hrs followed by irradiated with 54 J/cm^2 of light dose and further incubated for 24 hrs by CCK-8 assay. As to conditions: B16-F10, light or radiation study. It counts as toxicity, cell-based.
Data set [7] deals with B16-F10. Nature of the data set: Antitumor activity against mouse B16-F10 cells implanted in C57BL/6 mouse assessed as inhibition of tumor growth at 2 mg/kg, iv irradiated with 60 J/cm^2 laser light by IVIS imaging analysis measured upto 48 hrs. It counts as functional, organism-based. As to conditions: time hrs <=48.
Data set [8] in a line: Toxicity in C57BL/6 mouse harboring mouse B16-F10 cells assessed as change in body weight at 2 mg/kg, iv irradiated with 60 J/cm^2 laser light measured upto 14 days. It counts as organism-based. Particulars: in vivo, 336 h, time <=14 day.
The test system of data set [9] is B16-F10. Briefly: Antitumor activity against mouse B16-F10 cells implanted in C57BL/6 mouse assessed as tumor destruction at 2 mg/kg, iv irradiated with 60 J/cm^2 laser light measured after 14 days by hematoxylin and eosin based microscopic analysis. Particulars: time 14.0 day. The class given is functional, organism-based.
Data set [10] concerns B16-F10. Nature of the data set: Antitumor activity against mouse B16-F10 cells implanted in C57BL/6 mouse assessed as tumor regrowth at 2 mg/kg, iv upto after 6 days irradiated with 60 J/cm^2 laser light by IVIS imaging analysis. It counts as functional, organism-based. Particulars: time 6.0 day.

`COc1ccc2c(c1)CCc1c(-c3ccccc3)c3n(c1-2)[B-](F)(F)[N+]1=C(c2ccc(OCC(=O)O)cc2)C(I)=C(c2ccccc2)C1=N3`: the IC50 was 320 nM in [1]; more than 50000 nM with B16-F10 [3]; 274 nM in data set [5]; more than 50000 nM in the data set with A-375; more than 50000 nM in the data set on HeLa; 346 nM in data set [6]. In data set [2], this compound showed a solubility of 21.8 µM (≈ 16.4 µg/mL). In addition, the logP in data set [4] turned out to be 0.92.
Regarding `COc1ccc2c(c1)CCc1c(-c3ccccc3)c3n(c1-2)[B-](F)(F)[N+]1=C(c2ccc(OCC(=O)N[C@@H](CC(=O)O)C(=O)O)cc2)C(I)=C(c2ccccc2)C1=N3`, the IC50 in [1] is 148 nM; with B16-F10 [3] it was more than 250000 nM; in [5], 55 nM; in the data set on A-375, more than 250000 nM; in the data set on HeLa, more than 250000 nM; in [6], 126 nM. In [2], this compound returned a solubility of 115 µM (≈ 100 µg/mL). The compound further returned a logP in data set [4] of -0.73.
`COc1ccc(C2=[N+]3C(=Nc4c(-c5ccccc5)c5c(n4[B-]3(F)F)-c3ccc(OC)cc3CC5)C(c3ccccc3)=C2I)cc1` showed a solubility in data set [2] of less than 1 µM. This compound also gave a logP in data set [4] of more than 3.
`COc1ccc(C2=[N+]3C(=Nc4c(-c5ccccc5)c5c(n4[B-]3(F)F)-c3ccc(OCC(=O)N[C@@H](CCC(=O)O)C(=O)O)cc3CC5)C(c3ccccc3)=C2I)cc1`: the IC50 is 166 nM in data set [1]; more than 250000 nM in the data set on B16-F10 [3]; 78 nM in [5]; more than 250000 nM in the data set on A-375; more than 250000 nM with HeLa; 159 nM in data set [6]. Moreover, the solubility in data set [2] came out at 158 µM (≈ 139 µg/mL). For the same compound, the logP in data set [4] was -0.74.
In the case of `C=Cc1c(C)c2cc3nc(c(CC(=O)O)c4[nH]c(cc5nc(cc1[nH]2)C(C)=C5CC)c(C)c4C(=O)O)[C@@H](CCC(=O)O)[C@@H]3C` [CHLORIN E6], the result in the data set with B16-F10 [7] was inactive. In addition, the Activity entry in data set [8] is recorded as “Non-Toxic”.
In the case of `COc1ccc(C2=[N+]3C(=Nc4c(-c5ccccc5)c5c(n4[B-]3(F)F)-c3ccc(OCC(=O)O)cc3CC5)C(c3ccccc3)=C2I)cc1`, the IC50 in data set [1] is 142 nM; in the data set with B16-F10 [3], more than 50000 nM; in data set [5], 56 nM; with A-375, more than 50000 nM; in the data set with HeLa, more than 50000 nM; in [6], 104 nM. Besides, the solubility in data set [2] was found to be 28.4 µM (≈ 21.4 µg/mL). Further, the logP in [4] was found to be 0.94.
Take `COc1ccc(C2=[N+]3C(=Nc4c(-c5ccccc5)cc(-c5ccc(OC)cc5)n4[B-]3(F)F)C(c3ccccc3)=C2I)cc1`: the IC50 in [1] is 254 nM; in the data set on B16-F10 [3], more than 50000 nM; in [5], 76 nM; in the data set with A-375, more than 50000 nM; in the data set with HeLa, more than 50000 nM; in [6] it was 276 nM. In [2], this compound displayed a solubility of less than 1 µM. The outcome with B16-F10 [9], with B16-F10 [7] and in the data set with B16-F10 [10] was Active. In addition, in data set [4], the logP is more than 3. For the same compound, in data set [8], the Activity result was “Non-Toxic”.
As to `COc1ccc2c(c1)CCc1c(-c3ccccc3)c3n(c1-2)[B-](F)(F)[N+]1=C(c2ccc(OCC(=O)N[C@@H](CCC(=O)O)C(=O)O)cc2)C(I)=C(c2ccccc2)C1=N3`, the IC50 is 284 nM in data set [1]; more than 250000 nM with B16-F10 [3]; 119 nM in [5]; more than 250000 nM in the data set with A-375; more than 250000 nM in the data set with HeLa; 212 nM in data set [6]. The compound also yielded a solubility in data set [2] of 110 µM (≈ 96.7 µg/mL). Moreover, the logP in data set [4] is -0.71.
